Test results as given in patent publication US10925858B2, “S-nitrosoglutathione (GSNO) and GSNO reductase inhibitors for use in therapy” (MUSC FOUNDATION FOR RESEARCH DEVELOPMENT, priority 2017, dated 2021).

How the values were obtained:
[1] = Edema (brain water content) in CCI rat model of TBI; type: in vivo, Sprague Dawley rats; settings: 24 hr after TBI; GSNO 0.05 mg/kg i.v. or FeTPPS 3 mg/kg i.v.
Excerpt: All animals used in this study received humane care in compliance with the Medical University of South Carolina's (MUSC) guidance and the National Research Council's criteria for humane care. Animal procedures were approved by the institutional animal care and use committee of MUSC (AR #2703). For generation of CCI model of TBI, young adult male (˜3-4 months old) Sprague Dawley rats weighing between 260-300 g were randomly divided into four groups: 1) TBI animals treated with vehicle (TBI; n=13), 2) TBI with GSNO (0.05 mg/kg body weight/i.v.) treatment (TBI+GSNO; n=13), 3) TBI with FeTPPS (3 mg/kg body weight, i.v.) treatment (TBI+FeTPPS; n=13), 4) sham-operated treated with vehicle (Sham; n=13). The group size was determined by power analysis based on our previous data (Khan et al., 2016b; Khan et al., 2009). Ketamine (90 mg/kg body weight) and xylazine (10 mg/kg body weight) as surgical anesthesia were administered intraperitoneally. Analgesic buprenorphine was administered pre-emptively to alleviate pain following surgery. […]
At 24 h following CCI, animals were euthanized to determine brain water content (edema) as described earlier (Hoda et al., 2009; Khan et al., 2009). […] Each hemisphere was dried at 60° C. for 72 hours, and the dry weight was determined. Water content was calculated in ipsilateral hemisphere as: water content (%)=(wet weight−dry weight)/wet weight×100.

[2] = system: diabetic mice; assay: Radial arm maze in STZ induced diabetic mice; type: in vivo
Procedure: Male laca mice weighing between 28-32 g were procured from the Central Animal House, Panjab University, Chandigarh. The animals were acclimatized and were fed with standard pellet diet and water ad libitum. The experimental protocols were approved by the Institutional Ethics Committee and were conducted according to Indian National Science Academy (INSA) guidelines for the use and care of experimental animals. The animals were divided into four groups: (i) Control animals received phosphate buffered saline (PBS) throughout the study; (ii) Control+GSNO animals were administered with GSNO 100 μg/kg body weight orally, dissolved in PBS after every 24 h for 8 weeks; (iii) Diabetic animals were injected with STZ at a dose of 40 mg/kg body weight intraperitoneally for 5 days dissolved in 0.1 mol/L citrate buffer, pH 4.5 and Diabetic+GSNO mice were administered GSNO 100 μg/kg body weight orally dissolved in PBS after every 24 h for 8 weeks after the induction of diabetes. Animals were assessed weekly for development of diabetic encephalopathy in terms of memory deficits. All experimental procedures were done on mice at the end of study. Radial arm maze was used to assess specific learning and memory in the radial arm maze (Veena et al., 2009). Its apparatus consisted of equally spaced arms (35×9×5 cm) radiating from an octagonal central platform, and the maze was kept 80 cm elevated from the ground. Prior to the acquisition, all the arms were baited and mice were allowed to explore the maze for 10 min and were subjected to two such acclimatization sessions on consecutive days. […] An arm choice was recorded when the animal reached the end of an arm. An arm entry was counted when all four paws entered the arm. […] After acquisition period, animals were evaluated for retention of the task. […] The data were analyzed for the number of reference memory errors (exploring an arm never baited), working memory errors (exploring a baited arm already visited), total number of errors, memory retention and % correct choice.

[3] = diabetic mice, GSNO 100 μg/kg body weight orally daily for 8 weeks, vs diabetic group

SMILES: Cl.O=S(=O)([O-])c1ccc(-c2c3nc(c(-c4ccc(S(=O)(=O)O)cc4)c4ccc([nH]4)c(-c4ccc(S(=O)(=O)O)cc4)c4nc(c(-c5ccc(S(=O)(=O)O)cc5)c5ccc2[nH]5)C=C4)C=C3)cc1.[Fe] [FeTPPS, 5,10,15,20-Tetrakis(4-sulfonatophenyl)porphyrinato Iron (III), Cl, reference compound]
- TBI-induced increase in brain water content [1]: reduced

SMILES: N[C@@H](CCC(=O)N[C@@H](CSN=O)C(=O)NCC(=O)O)C(=O)O [GSNO, S-nitrosoglutathione]
- increase in the percentage of correct choices [2, 3]: 30%
- lowered number of errors [2, 3]: 44%
- radial arm maze parameters of GSNO-treated control mice ([2]; non-diabetic control mice, GSNO 100 μg/kg orally for 8 weeks, vs control mice): not significantly different from control mice
- TBI-induced increase in brain water content [1]: reduced
